Data set [1] deals with T1, MthNAG (Thermothelomyces thermophilus, UniProt G2Q2L6).
T1 construct: gene MYCTH_2294755; full-length GH20 secreted enzyme, 582-residue precursor with 21-residue signal peptide; homologously overexpressed in M. thermophila C1, purified by IEX and SEC, no tag told; most similar to XP_003658680 of strain ATCC 42464
T1 sequence (G2Q2L6 22-582): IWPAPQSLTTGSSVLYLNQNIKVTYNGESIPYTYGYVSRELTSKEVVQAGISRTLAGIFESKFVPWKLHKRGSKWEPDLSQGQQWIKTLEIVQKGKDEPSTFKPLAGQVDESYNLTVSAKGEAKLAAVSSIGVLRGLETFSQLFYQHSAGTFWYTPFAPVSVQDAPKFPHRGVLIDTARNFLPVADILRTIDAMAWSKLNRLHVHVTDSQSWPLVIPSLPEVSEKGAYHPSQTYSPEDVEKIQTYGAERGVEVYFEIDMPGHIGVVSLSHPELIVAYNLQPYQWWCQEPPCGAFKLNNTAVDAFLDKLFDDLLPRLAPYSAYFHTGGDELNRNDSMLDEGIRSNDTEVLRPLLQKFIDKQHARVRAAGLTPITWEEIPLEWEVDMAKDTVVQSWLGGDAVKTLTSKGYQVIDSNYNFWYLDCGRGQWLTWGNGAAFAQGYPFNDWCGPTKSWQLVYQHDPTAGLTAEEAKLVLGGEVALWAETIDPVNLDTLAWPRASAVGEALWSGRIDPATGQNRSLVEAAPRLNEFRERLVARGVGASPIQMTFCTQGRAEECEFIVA
Description: substrate inhibition kinetics, released GlcNAc by HPAEC. It counts as biochemical. The conditions noted are these: citrate-phosphate buffer 0.1 M, pH 4.5, 50 °C.

For data set [2], the target named is T1, MthNAG. Kind of data set: substrate inhibition kinetics, released p-nitrophenol at […] nm. It counts as biochemical. Particulars: citrate-phosphate buffer 0.1 M, pH 4, 50 °C.
Substrate in data set [3]: CC(=O)N[C@H]1[C@H](Oc2ccc([N+](=O)[O-])cc2)O[C@H](CO)[C@@H](O)[C@@H]1O
Description: purified protein. Format: biochemical, Thermothelomyces thermophilus. The conditions noted are these: citrate-phosphate buffer 0.1 M, pH 4, 50 °C.

For `CC(=O)N[C@H]1[C@H](O[C@H]2[C@H](O)[C@@H](NC(C)=O)C(O)O[C@@H]2CO)O[C@H](CO)[C@@H](O)[C@@H]1O` (stereo partly shown) [(GlcNAc)2], the Ki in data set [1] turned out to be 500 ± 110 µM.

Consider `CC(=O)N[C@H]1[C@H](Oc2ccc([N+](=O)[O-])cc2)O[C@H](CO)[C@@H](O)[C@@H]1O` [GlcNAc-pNP, 4-nitrophenyl-N-acetylglucosamine], for which the Ki in data set [2] was found to be 1960 ± 260 µM.

B1: MthNAG (Thermothelomyces thermophilus ATCC 42464) (protein)
chain: IWPAPQSLTTGSSVLYLNQNIKVTYNGESIPYTYGYVSRELTSKEVVQAGISRTLAGIFESKFVPWKLHKRGSKWEPDLSQGQQWIKTLEIVQKGKDEPSTFKPLAGQVDESYNLTVSAKGEAKLAAVSSIGVLRGLETFSQLFYQHSAGTFWYTPFAPVSVQDAPKFPHRGVLIDTARNFLPVADILRTIDAMAWSKLNRLHVHVTDSQSWPLVIPSLPEVSEKGAYHPSQTYSPEDVEKIQTYGAERGVEVYFEIDMPGHIGVVSLSHPELIVAYNLQPYQWWCQEPPCGAFKLNNTAVDAFLDKLFDDLLPRLAPYSAYFHTGGDELNRNDSMLDEGIRSNDTEVLRPLLQKFIDKQHARVRAAGLTPITWEEIPLEWEVDMAKDTVVQSWLGGDAVKTLTSKGYQVIDSNYNFWYLDCGRGQWLTWGNGAAFAQGYPFNDWCGPTKSWQLVYQHDPTAGLTAEEAKLVLGGEVALWAETIDPVNLDTLAWPRASAVGEALWSGRIDPATGQNRSLVEAAPRLNEFRERLVARGVGASPIQMTFCTQGRAEECEFIVA
notes: full-length GH20 secreted enzyme, 582-residue precursor with 21-residue signal peptide; homologously overexpressed in M. thermophila C1, purified by IEX and SEC, no tag told; most similar to XP_003658680 of strain ATCC 42464
By Km is commonly meant the concentration of substrate that gives half-maximal velocity. The term kcat denotes the number of substrate molecules converted per active site and unit of time at saturation. B1: in data set [3], the Km turned out to be 60 ± 10 µM and the kcat was 14.0 ± 0.7 s⁻¹.
